Where a name gives a salt, the structure may show the parent alone.
Legend:
[1] = target: Factor XIIa (Homo sapiens (Human), UniProt P00748); assay: Determination of enzyme selectivity: Factor XIIa; type: biochemical; conditions: substrate at Km concentration
Text: (§1) Determination of Enzyme Selectivity

[2] = tested on: CA-I stimulated RVP in Sprague Dawley rats; assay: Carbonic anhydrase I induced retinal vascular permeability model; type: in vivo; conditions: rat
Procedure: Carbonic Anhydrase I Induced Retinal Vascular Permeability Model
After 30 mins, a second intravitreal injection (5 μL) of PBS or CA-I (200 ng/eye) was given. After 15 minutes, 10% sodium fluorescein was infused and retinal vascular permeability (RVP) was measured by vitreous fluorophotometry 75 minutes following the initial IVT injections. […] Intravitreal injection of N—[(R)-1-[(S)-1-(4-amino methyl-benzylcarbamoyl)-2-phenyl-ethylcarbamoyl]-2-(4-ethoxy-phenyl)-ethyl]-benzamide hydrochloride reduced RVP (stimulated by CA-I injection) by 53±21%.

[3] = target: Factor Xa (Homo sapiens (Human), UniProt P00742); assay: Determination of enzyme selectivity: Factor Xa; type: biochemical; conditions: substrate at Km concentration
Text: as §1

[4] = target: thrombin (Homo sapiens (Human), UniProt P00734); assay: Determination of enzyme selectivity: thrombin; type: biochemical; conditions: substrate at Km concentration
Text: as §1

[5] = Ocular and systemic pharmacokinetics following a single IVT dose; type: in vivo, rabbit; conditions: Dutch-belted rabbits
Procedure: A pharmacokinetic study of N—[(R)-1-[(S)-1-(4-aminomethyl-benzylcarbamoyl)-2-phenyl-ethylcarbamoyl]-2-(4-ethoxy-phenyl)-ethyl]-benzamide hydrochloride was performed to assess the ocular and systemic pharmacokinetics following a single IVT dose in pigmented (Dutch-belted) rabbits. […] Serial blood samples were collected in surviving rabbits.

[6] = Storage stability at 40° C. and 75% relative humidity for 6 months; type: physicochemical
Text: Further evidence of the suitability of the crystalline forms for pharmaceutical development is provided by the following stability data.

[7] = Gravimetric vapour sorption (GVS); type: physicochemical
Procedure: Gravimetric Vapour Sorption
Sorption isotherms were obtained using a Hiden Isochema moisture sorption analyser (model IGAsorp), controlled by IGAsorp Systems Software V6.50.48. The sample was maintained at a constant temperature (25° C.) by the instrument controls. The humidity was controlled by mixing streams of dry and wet nitrogen, with a total flow of 250 ml·min-1. The instrument was verified for relative humidity content by measuring three calibrated Rotronic salt solutions (10-50-88%). The weight change of the sample was monitored as a function of humidity by a microbalance (accuracy +/−0.005 mg). A defined amount of sample was placed in a tared mesh stainless steel basket under ambient conditions. A full experimental cycle consisted of three scans (sorption, desorption and sorption) at a constant temperature (25° C.) and 10% RH intervals over a 0-90% range (60 minutes for each humidity level).

[8] = target: Human plasma kallikrein (Homo sapiens (Human), UniProt P03952); assay: Determination of the Ki for plasma kallikrein; type: biochemical; conditions: 37° C., fluorogenic substrate H-DPro-Phe-Arg-AFC; read-out: Ki (human Pkal)
Procedure: Determination of the Ki for Plasma Kallikrein
Plasma kallikrein inhibitory activity in vitro was determined using standard published methods (see e.g. Johansen et al., Int. J. Tiss. Reac. 1986, 8, 185; Shori et al., Biochem. Pharmacol., 1992, 43, 1209; Stürzebecher et al., Biol. Chem. Hoppe-Seyler, 1992, 373, 1025). Human plasma kallikrein (Protogen) was incubated at 37° C. with the fluorogenic substrate H-DPro-Phe-Arg-AFC and various concentrations of the test compound. Residual enzyme activity (initial rate of reaction) was determined by measuring the change in […] at 410 nm and the Ki value for the test compound was determined.

[9] = target: Human KLK1 (Homo sapiens (Human), UniProt P06870); assay: Determination of the IC50 for KLK1; type: biochemical; conditions: 37° C., fluorogenic substrate H-DVal-Leu-Arg-AFC
Procedure: Determination of the IC50 for KLK1
Human KLK1 (Callbiochem) was incubated at 37° C. with the fluorogenic substrate H-DVal-Leu-Arg-AFC and various concentrations of the test compound. Residual enzyme activity (initial rate of reaction) was determined by measuring the change in optical absorbance at 410 nm and the IC50 value for the test compound was determined.

[10] = tested on: diabetic rats; conditions: cited from earlier work

Factor Xa, sequence (P00742 235-488): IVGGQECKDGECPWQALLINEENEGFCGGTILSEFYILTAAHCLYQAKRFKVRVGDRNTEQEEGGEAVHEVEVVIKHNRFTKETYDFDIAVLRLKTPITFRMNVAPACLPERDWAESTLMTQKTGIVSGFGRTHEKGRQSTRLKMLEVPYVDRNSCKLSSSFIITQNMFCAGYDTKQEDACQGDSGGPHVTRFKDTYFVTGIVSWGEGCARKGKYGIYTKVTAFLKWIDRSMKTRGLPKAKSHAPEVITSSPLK
Factor Xa, sequence (P00742 41-179 partner): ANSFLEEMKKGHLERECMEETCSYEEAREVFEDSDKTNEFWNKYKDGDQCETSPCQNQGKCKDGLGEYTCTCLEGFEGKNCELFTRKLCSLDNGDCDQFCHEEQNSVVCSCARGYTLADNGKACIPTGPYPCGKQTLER
Human KLK1, sequence (P06870 25-262): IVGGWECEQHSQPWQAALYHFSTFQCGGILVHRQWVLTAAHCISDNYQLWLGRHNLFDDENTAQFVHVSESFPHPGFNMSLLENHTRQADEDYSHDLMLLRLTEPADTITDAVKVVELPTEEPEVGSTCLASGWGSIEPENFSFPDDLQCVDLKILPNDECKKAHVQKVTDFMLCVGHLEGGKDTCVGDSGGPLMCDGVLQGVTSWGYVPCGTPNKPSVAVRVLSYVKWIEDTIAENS
Factor XIIa, sequence (P00748 373-615): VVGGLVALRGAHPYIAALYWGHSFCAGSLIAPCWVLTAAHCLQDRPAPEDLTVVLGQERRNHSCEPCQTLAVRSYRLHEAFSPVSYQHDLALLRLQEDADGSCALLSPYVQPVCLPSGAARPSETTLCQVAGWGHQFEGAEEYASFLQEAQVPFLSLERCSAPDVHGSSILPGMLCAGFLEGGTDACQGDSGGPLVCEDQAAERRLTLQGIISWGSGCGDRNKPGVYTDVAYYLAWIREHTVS
Human plasma kallikrein, sequence (P03952 391-638): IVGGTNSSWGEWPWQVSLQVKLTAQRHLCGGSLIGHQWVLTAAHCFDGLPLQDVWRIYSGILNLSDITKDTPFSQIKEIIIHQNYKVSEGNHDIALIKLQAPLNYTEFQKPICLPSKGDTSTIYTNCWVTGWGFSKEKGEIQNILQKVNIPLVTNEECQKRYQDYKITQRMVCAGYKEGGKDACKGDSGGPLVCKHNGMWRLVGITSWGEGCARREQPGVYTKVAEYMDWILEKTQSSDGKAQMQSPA
Human plasma kallikrein, sequence (P03952 20-390 partner): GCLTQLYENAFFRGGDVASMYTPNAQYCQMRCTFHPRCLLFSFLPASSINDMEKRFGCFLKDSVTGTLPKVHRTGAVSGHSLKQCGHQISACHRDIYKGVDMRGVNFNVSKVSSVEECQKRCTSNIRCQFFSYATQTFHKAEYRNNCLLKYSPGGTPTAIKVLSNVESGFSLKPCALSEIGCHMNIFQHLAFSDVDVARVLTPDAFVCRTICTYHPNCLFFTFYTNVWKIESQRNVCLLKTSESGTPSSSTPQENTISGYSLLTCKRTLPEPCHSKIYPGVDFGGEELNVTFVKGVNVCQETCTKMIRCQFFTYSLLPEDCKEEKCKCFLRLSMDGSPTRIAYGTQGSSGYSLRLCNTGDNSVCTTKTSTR

**Q.** Which results are given for CCOc1ccc(C[C@@H](NC(=O)c2ccccc2)C(=O)N[C@@H](Cc2ccccc2)C(=O)NCc2ccc(CN)cc2)cc1 [N—[(R)-1-[(S)-1-(4-aminomethyl-benzylcarbamoyl)-2-phenyl-ethylcarbamoyl]-2-(4-ethoxy-phenyl)-ethyl]-benzamide hydrochloride]?
**A.** IC50 [1]: > 10 µM; reduction of RVP stimulated by CA-I injection ([2]; intravitreal injection 5 μL of 1 μM, CA-I 200 ng/eye after 30 mins): 53±21%; basal RVP ([2]; intravitreal injection of 1 μM alone (no CA-I), no effect compared to PBS alone, vitreous fluorophotometry at 75 minutes): 3.29±0.21; IC50 [3]: > 10 µM; IC50 [4]: > 40 µM; decline in ocular tissue concentrations ([5]; single IVT 210 ng per eye, vitreous, retina/choroid, aqueous humour, over 7 days): minimal; plasma concentrations following IVT administration ([5]; single bilateral IVT 210 ng per eye, all time points): below 1 ng/mL

**Q.** Which “chemical degradation on storage” value ([6]; 6 months) does the source give for CCOc1ccc(C[C@@H](NC(=O)c2ccccc2)C(=O)N[C@@H](Cc2ccccc2)C(=O)NCc2ccc(CN)cc2)cc1 [Form 1, N—[(R)-1-[(S)-1-(4-aminomethyl-benzylcarbamoyl)-2-phenyl-ethylcarbamoyl]-2-(4-ethoxy-phenyl)-ethyl]-benzamide hydrochloride] here?
**A.** no significant chemical degradation

**Q.** And the “purity (HPLC) on storage” value ([6]; 6 months)?
**A.** 99.8 % area

**Q.** And the “change to the XRPD diffractogram on storage” value ([6]; 6 months, double polyethylene bags in polypropylene container)?
**A.** no change

**Q.** What about the “water content (Karl Fischer) on storage” value ([6]; after one month and thereafter up to 6 months) of the same compound?
**A.** 2.5%-2.8%

**Q.** And the “hydration (GVS)” value ([7]; 25° C., sorption, desorption and sorption, 0-90% RH)?
**A.** reversible

**Q.** And the hygroscopicity ([7]; GVS data)?
**A.** absence of significant hygroscopicity

**Q.** What about the “increase in water content (GVS)” value ([7]; normal conditions, 20% to 80% relative humidity) of the same compound?
**A.** only a relatively gradual increase

**Q.** And the Ki [8]?
**A.** 0.01 µM

**Q.** And the IC50 [9]?
**A.** > 10 µM

**Q.** For N=C(N)c1ccc(CNC(=O)c2cnn(Cc3ccccc3)c2)cc1 [ASP-440], which “retinal vascular permeability and retinal blood flow abnormalities” value [10] is on record?
**A.** ameliorated
